Experimental data taken from patent US20260258032A1, “TYROSINE KINASE 2 INHIBITORS AND USES THEREOF” (BIOGEN MA INC., priority 2022, published 2026).
pIC50: −log10 of the molar value. Counter-ions that a name gives are not always drawn.

Assays:
[1] = test system: Tyk2 kinase activity on STAT4; assay: pSTAT4 cell assay (MSD, NK92 cells); type: cell-based; settings: compounds 1 hr
Summary of the method: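 IC50 values derive from 4-parameter logistic fits of normalized percent activity against log compound concentration. Phospho-STAT was measured by MSD with anti-STAT4 antibodies after 15 min of 30 ng/mL IL2 in serum-starved NK92 cells pretreated 1 hr with compound.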

JH2 domain of human Tyk2 = molecular target: T1, JH2 domain of human Tyk2 (Homo sapiens, UniProt P29597); assay: JH2 biochemical assay (TR-FRET probe displacement); type: binding
T1 construct: 10×His-tagged TYK2 JH2 domain (amino acid 575-876)
Summary of the method: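 10×His-tagged human TYK2 JH2 (aa 575-876, 2 nM) incubated 60 min with 2 nM fluorescent probe, 0.1 nM Tb anti-His antibody and compound (10-point 3-fold series from […] top). TR-FRET 520/495 nm ratio, falling with probe displacement, normalized and fitted to a 4-parameter logistic for IC50.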

[2] = TR-FRET probe displacement, JH2 domain of human Tyk2

T1 sequence (P29597 575-876): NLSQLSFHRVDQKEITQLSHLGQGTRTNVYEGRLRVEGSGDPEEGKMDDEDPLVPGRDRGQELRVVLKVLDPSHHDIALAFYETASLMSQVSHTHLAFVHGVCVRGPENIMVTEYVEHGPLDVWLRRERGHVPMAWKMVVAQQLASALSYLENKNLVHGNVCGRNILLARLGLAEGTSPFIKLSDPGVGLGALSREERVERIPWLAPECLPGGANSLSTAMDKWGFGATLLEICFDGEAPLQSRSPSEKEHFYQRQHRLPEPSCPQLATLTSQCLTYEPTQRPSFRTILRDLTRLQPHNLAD

Compound | pIC50 ([1]; stimulated 15 minutes) | pIC50 (JH2 domain of human Tyk2; JH2 biochemical assay) | pIC50 ([1]; then stimulated 15 minutes) | pIC50 (JH2 domain of human Tyk2; [2])
CC(=O)Nc1cc2c(cn1)C1(CC1)CN2c1cc(C)nc(C2CCS(=O)(=O)C2)n1 (centres unmarked) [Example 98, N-(1′-(2-(1,1-dioxidotetrahydrothiophen-3-yl)-6-methylpyrimidin-4-yl)-1′,2′-dihydrospiro[cyclopropane-1,3′-pyrrolo[3,2-c]pyridin]-6′-yl)acetamide] | ≤ 6.00 | 7.00 to 8.00 |  | 
CC(=O)Nc1cc2c(cn1)C1(CC1)CN2c1cc(-c2cnn(CC3CC3)c2)nc(C(C)(F)F)n1 [Example 389, N-(1′-(6-(1-(cyclopropylmethyl)-1H-pyrazol-4-yl)-2-(1,1-difluoroethyl)pyrimidin-4-yl)-1′,2′-dihydrospiro[cyclopropane-1,3′-pyrrolo[3,2-c]pyridin]-6′-yl)acetamide] |  |  | ≥ 8.00 | ≥ 8.00
CC(=O)Nc1cc2c(cn1)C1(CC1)CN2c1cc(C)cc(N2CCNCC2)n1 [Example 211, N-(1′-(4-methyl-6-(piperazin-1-yl)pyridin-2-yl)-1′,2′-dihydrospiro[cyclopropane-1,3′-pyrrolo[3,2-c]pyridin]-6′-yl)acetamide trifluoroacetate] | ≤ 6.00 | ≥ 8.00 |  | 
CC(=O)Nc1cc2c(cn1)C1(CC1)CN2c1cc(N2CCOCC2)nc(C(C)(F)F)n1 [Example 52, N-(1′-(2-(1,1-difluoroethyl)-6-morpholinopyrimidin-4-y1)-1′,2′-dihydrospiro[cyclopropane-1,3′-pyrrolo[3,2-c]pyridin]-6′-yl)acetamide] | 6.00 to 7.00 | ≥ 8.00 |  | 
CC(=O)Nc1cc2c(cn1)C1(CC1)CN2c1nc(C)c(C)s1 [Example 80, N-(1′-(4,5-dimethylthiazol-2-yl)-1′,2′-dihydrospiro[cyclopropane-1,3′-pyrrolo[3,2-c]pyridin]-6′-yl)acetamide] | ≤ 6.00 | 7.00 to 8.00 |  | 
CC(=O)Nc1cc2c(cn1)C1(CC1)CN2c1cc(NC2CC2)nc(C(C)(F)F)n1 [Example 284, N-(1′-(6-(cyclopropylamino)-2-(1,1-difluoroethyl)pyrimidin-4-yl)-1′,2′-dihydrospiro[cyclopropane-1,3′-pyrrolo[3,2-c]pyridin]-6′-yl)acetamide trifluoroacetate] | 7.00 to 8.00 | ≥ 8.00 |  | 
CC(=O)Nc1cc2c(cn1)C1(CC1)CN2c1cc(C(C)C)nc(C(C)(F)F)n1 [Example 53, N-(1′-(2-(1,1-difluoroethyl)-6-isopropylpyrimidin-4-yl)-1′,2′-dihydrospiro[cyclopropane-1,3′-pyrrolo[3,2-c]pyridin]-6′-yl)acetamide] | 7.00 to 8.00 | ≥ 8.00 |  | 
COC1(C)CC1Nc1cc(N2CC3(CC3)c3cnc(NC(C)=O)cc32)nc(C(C)(F)F)n1 (centres unmarked) [Example 173, N-(1′-(2-(1,1-difluoroethyl)-6-((2-methoxy-2-methylcyclopropyl)amino)pyrimidin-4-yl)-1′,2′-dihydrospiro[cyclopropane-1,3′-pyrrolo[3,2-c]pyridin]-6′-yl)acetamide trifluoroacetate] | 7.00 to 8.00 | ≥ 8.00 |  | 
CC(=O)Nc1cc2c(cn1)C1(CC1)CN2c1cc(C)nc(N2CC(C#N)(C(F)F)C2)n1 [Example 223, N-(1′-(2-(3-cyano-3-(difluoromethyl)azetidin-1-yl)-6-methylpyrimidin-4-yl)-1′,2′-dihydrospiro[cyclopropane-1,3′-pyrrolo[3,2-c]pyridin]-6′-yl)acetamide trifluoroacetate] | ≤ 6.00 | 7.00 to 8.00 |  | 
CC(=O)Nc1cc2c(cn1)C1(CC1)CN2c1cc(C)nc(C(C)S(C)(=O)=O)n1 (centres unmarked) [Example 97, N-(1′-(6-methyl-2-(1-(methylsulfonyl)ethyl)pyrimidin-4-yl)-1′,2′-dihydrospiro[cyclopropane-1,3′-pyrrolo[3,2-c]pyridin]-6′-yl)acetamide] | 6.00 to 7.00 | ≥ 8.00 |  | 
CC(=O)Nc1cc2c(cn1)C1(CC1)CN2c1cc(C)nc(N2CC(C)(C#N)C2)n1 [Example 221, N-(1′-(2-(3-cyano-3-methylazetidin-1-yl)-6-methylpyrimidin-4-yl)-1′,2′-dihydrospiro[cyclopropane-1,3′-pyrrolo[3,2-c]pyridin]-6′-yl)acetamide] | 6.00 to 7.00 | ≥ 8.00 |  | 
CCC(F)(F)c1nc(C)cc(N2CC3(CC3)c3cnc(NC(C)=O)cc32)n1 [Example 304, N-(1′-(2-(1,1-difluoropropyl)-6-methylpyrimidin-4-yl)-1′,2′-dihydrospiro[cyclopropane-1,3′-pyrrolo[3,2-c]pyridin]-6′-yl)acetamide trifluoroacetate] | 7.00 to 8.00 | ≥ 8.00 |  | 
CCOC(=O)C(F)(F)c1nc(C)cc(N2CC3(CC3)c3cnc(NC(C)=O)cc32)n1 [Example 281, Ethyl 2-(4-(6′-acetamidospiro[cyclopropane-1,3′-pyrrolo[3,2-c]pyridin]-1′(2′H)-yl)-6-methylpyrimidin-2-yl)-2,2-difluoroacetate] | ≤ 6.00 | 6.00 to 7.00 |  | 
CC(=O)Nc1cc2c(cn1)C1(CC1)CN2c1cc(C)nc(N2CC(S(C)(=O)=O)C2)n1 [Example 224, N-(1′-(6-methyl-2-(3-(methylsulfonyl)azetidin-1-yl)pyrimidin-4-yl)-1′,2′-dihydrospiro[cyclopropane-1,3′-pyrrolo[3,2-c]pyridin]-6′-yl)acetamide] | ≤ 6.00 | 6.00 to 7.00 |  | 
COCCOC1CCN(c2cc(C)cc(N3CC4(CC4)c4cnc(NC(C)=O)cc43)n2)C1 (centres unmarked) [Example 185, N-(1′-(6-(3-(2-methoxyethoxy)pyrrolidin-1-yl)-4-methylpyridin-2-yl)-1′,2′-dihydrospiro[cyclopropane-1,3′-pyrrolo[3,2-c]pyridin]-6′-yl)acetamide] | ≤ 6.00 | 6.00 to 7.00 |  | 
COC1(C)CN(c2nc(C)cc(N3CC4(CC4)c4cnc(NC(C)=O)cc43)n2)C1 [Example 234, N-(1′-(2-(3-methoxy-3-methylazetidin-1-yl)-6-methylpyrimidin-4-yl)-1′,2′-dihydrospiro[cyclopropane-1,3′-pyrrolo[3,2-c]pyridin]-6′-yl)acetamide] | 6.00 to 7.00 | 7.00 to 8.00 |  | 
CC(=O)Nc1cc2c(cn1)C1(CC1)CN2c1cc(-c2cnn(C)c2C)nc(C(C)(F)F)n1 [Example 240, N-(1′-(2-(1,1-difluoroethyl)-6-(1,5-dimethyl-1H-pyrazol-4-yl)pyrimidin-4-yl)-1′,2′-dihydrospiro[cyclopropane-1,3′-pyrrolo[3,2-c]pyridin]-6′-yl)acetamide trifluoroacetate] | 7.00 to 8.00 | ≥ 8.00 |  | 
CCc1cc(N2CC3(CC3)c3cnc(NC(N)=O)cc32)nc(C(C)(F)F)n1 [Example 309, 1-(1′-(2-(1,1-difluoroethyl)-6-ethylpyrimidin-4-yl)-1′,2′-dihydrospiro[cyclopropane-1,3′-pyrrolo[3,2-c]pyridin]-6′-yl)urea] | ≥ 8.00 | ≥ 8.00 |  | 
CCc1cc(N2CC3(CC3)c3cnc(NC(=O)OC)cc32)nc(C(C)(F)F)n1 [Example 311, Methyl (1′-(2-(1,1-difluoroethyl)-6-ethylpyrimidin-4-yl)-1′,2′-dihydrospiro[cyclopropane-1,3′-pyrrolo[3,2-c]pyridin]-6′-yl)carbamate trifluoroacetate] | 7.00 to 8.00 | ≥ 8.00 |  | 
CC(=O)Nc1cc2c(cn1)C1(CC1)CN2c1cc(-c2cnn(C3COC3)c2)nc(C(C)(F)F)n1 [Example 388, N-(1′-(2-(1,1-difluoroethyl)-6-(1-(oxetan-3-yl)-1H-pyrazol-4-yl)pyrimidin-4-yl)-1′,2′-dihydrospiro[cyclopropane-1,3′-pyrrolo[3,2-c]pyridin]-6′-yl)acetamide] |  |  | ≥ 8.00 | ≥ 8.00
COC1CC(Oc2cc(C)cc(N3CC4(CC4)c4cnc(NC(C)=O)cc43)n2)C1 (centres unmarked) [Example 343, N-(1′-(6-(3-methoxycyclobutoxy)-4-methylpyridin-2-yl)-1′,2′-dihydrospiro[cyclopropane-1,3′-pyrrolo[3,2-c]pyridin]-6′-yl)acetamide trifluoroacetate] | ≤ 6.00 | 6.00 to 7.00 |  | 
CC(=O)Nc1cc2c(cn1)C1(CC1)CN2c1cc(C(C)O)nc(C(C)(F)F)n1 (centres unmarked) [Example 293, N-(1′-(2-(1,1-difluoroethyl)-6-(1-hydroxyethyl)pyrimidin-4-yl)-1′,2′-dihydrospiro[cyclopropane-1,3′-pyrrolo[3,2-c]pyridin]-6′-yl)acetamide] | 6.00 to 7.00 | ≥ 8.00 |  | 
COC(C)c1nc(C)cc(N2CC3(CC3)c3cnc(NC(C)=O)cc32)n1 (centres unmarked) [Example 130, N-(1′-(2-(1-methoxyethyl)-6-methylpyrimidin-4-yl)-1′,2′-dihydrospiro[cyclopropane-1,3′-pyrrolo[3,2-c]pyridin]-6′-yl)acetamide] | 6.00 to 7.00 | ≥ 8.00 |  | 
CC(=O)Nc1cc2c(cn1)C1(CC1)CN2c1cc(-c2cnn(C)c2C(F)F)nc(C(C)(F)F)n1 [Example 385, N-(1′-(2-(1,1-difluoroethyl)-6-(5-(difluoromethyl)-1-methyl-1H-pyrazol-4-yl)pyrimidin-4-yl)-1′,2′-dihydrospiro[cyclopropane-1,3′-pyrrolo[3,2-c]pyridin]-6′-yl)acetamide trifluoroacetate] |  |  | 7.00 to 8.00 | ≥ 8.00
CC(=O)Nc1cc2c(cn1)C1(CC1)CN2c1cc(C)nc(S(C)(=O)=O)n1 [Example 136, N-(1′-(6-methyl-2-(methylsulfonyl)pyrimidin-4-yl)-1′,2′-dihydrospiro[cyclopropane-1,3′-pyrrolo[3,2-c]pyridin]-6′-yl)acetamide] | 7.00 to 8.00 | ≥ 8.00 |  | 
